We go through nine compounds from ChEMBL document CHEMBL1143232, “Antiviral activities against herpes simplex virus type 1 by HPH derivatives and their structure-activity relationships” (Bioorg Med Chem Lett, 2008).

The nature of series [1]: Cytotoxicity against african green monkey Vero cells after 69 hrs by Alamar blue assay. Conditions: chlorocebus sabaeus. In kind it is cell-based. On the technique in general: Resazurin is reduced to fluorescent resorufin, in cell work by metabolically active cells.
Another series has as its system Human alphaherpesvirus 1. Description: Antiviral activity against HSV1 KOS in african green monkey Vero cells by plaque reduction assay. Format: functional, organism-based. Conditions: Human alphaherpesvirus 1, KOS.
A short description of series [2]: Ratio of CC50 for african green monkey Vero cells to EC50 for HSV1 KOS. In kind it is functional.
Series [3] is described as follows: Partition coefficient, log P of the compound. Conditions: octanol/water. Format: physicochemical.

As a reminder, the CC50 is the concentration giving 50% cytotoxicity. For orientation: EC50 means the concentration at which the effect is half-maximal. Compound `O=C(O)CCNC(=O)c1cc(-c2cccc3ccccc23)cc(C(=O)NCCC(=O)O)n1` gave a CC50 at 69 h in series [1] above 100 µM. The compound further yielded an EC50 with Human alphaherpesvirus 1 above 100 µM.
With `O=C(CCNC(=O)c1cccc(C(=O)NCCC(=O)NO)n1)NO`, in series [1], the CC50 at 69 h was above 100 µM. The same compound registered an EC50 with Human alphaherpesvirus 1 above 100 µM.
Regarding `COC(=O)C(Cc1c[nH]cn1)NCc1cc(N(C)C)cc(C(=O)NC(Cc2c[nH]cn2)C(=O)OC)n1` (configuration not stated), in series [1], the CC50 at 69 h is above 100 µM. The 50% effective concentration (EC50) with Human alphaherpesvirus 1 is above 100 µM.
In general, logP refers to the decadic logarithm of the partition coefficient of the neutral form, usually between octanol and water. As to `CC(C)(C)SCCNC(=S)c1cccc(C(=S)NCCSC(C)(C)C)n1`, the “Ratio CC50/EC50” value in series [2] is 2.5. This compound displayed a CC50 at 69 h in series [1] of 37 µM. For the same compound, the logP in series [3] amounted to 4.4. In the series with Human alphaherpesvirus 1, a half-maximal effect (EC50) was put at 15 µM.
The corresponding values for `CC(C)(C)SCCNC(=O)c1cccc(C(=O)NCCSC(C)(C)C)n1` are 6.3, 500 µM, 2.7 and 79 µM.
In series [1], `CSCCNC(=O)c1cccc(C(=O)NCCSC)n1` displayed a CC50 at 69 h above 100 µM. This compound also showed an EC50 in the series on Human alphaherpesvirus 1 above 100 µM.
`O=C(O)CCNC(=O)c1cccc(C(=O)NCCC(=O)O)n1` displayed a CC50 at 69 h in series [1] above 100 µM. For the same compound, the EC50 in the series with Human alphaherpesvirus 1 is above 100 µM.
Regarding `O=C(CCNC(=O)c1cc(-c2cccc3ccccc23)cc(C(=O)NCCC(=O)NO)n1)NO`, the CC50 at 69 h in series [1] was above 100 µM. This compound yielded an EC50 with Human alphaherpesvirus 1 above 100 µM.
`Nc1nc2c(ncn2COCCO)c(=O)[nH]1` [ACYCLOVIR] returned a CC50 at 69 h in series [1] above 100 µM. Moreover, the EC50 with Human alphaherpesvirus 1 came to 6 µM.
